Assays:
[1] = test system: In-Vitro Vascular Smooth Muscle of Rabbits; assay: Relaxant effect on in vitro rabbit vascular smooth muscle contraction induced by hyperkalemia solution; conditions: for EC50: Oryctolagus cuniculus, relaxation of rabbit aortic rings contracted by hyperkalemia solution (K+ 60 mmol/L); for relaxant effect against hyperkalemia solution contraction (in words): rabbit vascular smooth muscle
[2] = test system: In Vitro Vascular Smooth Muscle of Rabbits; assay: Relaxant effect on in vitro rabbit vascular smooth muscle contraction induced by adrenaline (AD); conditions: for EC50: Oryctolagus cuniculus, relaxation of rabbit aortic rings contracted by AD (10^−5 mol/L); for relaxant effect against AD contraction (in words): rabbit vascular smooth muscle, AD 10^−5 mol/L
Source text: Krebs-Henseleit (K—H) physiological solution: NaCl 6.92 (concentration units), KCl 0.35, MgSO4 0.29, KH2PO4 0.16, CaCl2 0.28, NaHCO3 2.1, glucose 2.0 (g/L), pH 7.2.
Preparation of compound II-1 to II-87 solutions: Weigh a certain quality compound samples and dilute to concentrations (10^−10˜10^−3 mol/L) with distilled water, standby.
Cut the chest open quickly after stunning, strip out the descending aorta, then after removing the surrounding connective tissue and adipose tissue (if performed serotonin receptor antagonist experiments, endothelial cells should be removed using a smooth stainless steel bars), cut the vessels into 3-5 mm vascular ring, then pass the steel hook through the blood vessel ring, with one end is fixed to the vent hook and the other end connected to the tension transducer, then place the specimens into bath tube containing 20 mL of nutrient solution, and record tension change by tension transducer. Maintain tube temperature at 37±0.5° C., and pass bubbles (95% O2+5% CO2) into the solution as a speed of 1-2 bubbles/minute. Place an initial load of 1.5 g on the rings, and change nutrient every 20 minutes, then balance for 2 hours and start test after baseline readings are stabilized.
After tension readings are stabilized, record a certain length of tension curve, and add spasmogens agent AD (10^−5 mol/L) to induce contraction; if a maximum contract is achieved, wash the specimens thoroughly, and change K—H solution every 20 minutes, and then balance for 60 minutes; after baseline readings are stabilized, induce contract with spasmogens agent again. When the maximum contract in the later induction is consistent with the former induction, add compound II-1 to II-34 solutions (1×10^−10 to 1×10^−3 mol/L), II-35 to II-87 solutions (1×10^−8-1×10^−3 mol/L), and record the curves. Draw a dose-response curve using maximum relaxation response as 100%, relaxation percentage as ordinate and negative logarithms of the each concentration as abscissa.

Compound | EC50 [1] | further results
COc1ccc2nnn(CCCCN3CCC(c4cccc(C(F)(F)F)c4)CC3)c2c1 [II-8, N-(4-(6-methoxy-1H-benzotriazole-1-yl)butyl)-4-(3-trifluoromethylphenyl)piperidine] | 27.5 µM | 
Cc1cccc(N2CCN(CCCn3nnc4ccccc43)CC2)c1 [II-73, 1-(3-(4-(3-methylphenyl)piperazin-1-yl)propyl)-1H-benzotriazole] | 6.03 µM | EC50 [2]: 3.39 µM
O=Cc1ccc2nnn(CCCN3CCC(c4noc5cc(F)ccc45)CC3)c2c1 [II-18, N-(3-(6-formyl-1H-benzotriazole-1-yl)propyl)-4-(3-(6-fluorobenzoisoxazole))piperidine] | 4.79 µM | 
Cc1ccc2c(C3CCN(CCCn4nnc5ccccc54)CC3)noc2c1 [II-12, N-(3-(1H-benzotriazole-1-yl)propyl)-4-(3-(6-methyl-benzisoxazole))piperidine] | 8.13 µM | 
Clc1cccc(N2CCN(CCCCn3nnc4ccccc43)CC2)c1 [Compound II-63, 1-(4-(4-(3-chlorophenyl)piperazin-1-yl)butyl)-1H-benzotriazole] | 2.29 µM | EC50 [2]: 0.977 µM; relaxant effect against AD contraction (in words) [2]: most significant relaxation effects; relaxant effect against hyperkalemia solution contraction (in words) [1]: significant relaxant effect
Fc1ccc2c(N3CCN(CCCOn4nnc5ccccc54)CC3)noc2c1 [II-86] | 26.3 µM | EC50 [2]: 13.2 µM
c1ccc2c(c1)ncn2CCCCN1CCN(c2n[nH]c3ccccc23)CC1 [II-54, 1-(4-(4-(3-benzopyrazolyl)piperazin-1-yl)butyl)-1H-benzimidazole] | 117 µM | EC50 [2]: 58.9 µM
COC(=O)c1ccc2nnn(CCCCN3CCN(c4cccc(C(F)(F)F)c4)CC3)c2c1 [II-85, 6-methoxycarbonyl-1-(4-(4-(3-trifluoromethylphenyl)piperazin-1-yl)butyl)-1H-benzotriazole] | 77.6 µM | 
c1coc(C2CCN(CCCCn3cnc4ccccc43)CC2)c1 [II-29, N-(4-(1H-benzimidazol-1-yl)butyl)-4-(2-furyl)piperidine] | 29.5 µM | 
Clc1cccc(N2CCN(CCCCn3cnc4ccccc43)CC2)c1Cl [Compound II-37, 1-(4-(4-(2,3-dichlorophenyl)piperazin-1-yl)butyl)-1H-benzimidazole] | 3.24 µM | EC50 [2]: 0.977 µM; relaxant effect against AD contraction (in words) [2]: most significant relaxation effects; relaxant effect against hyperkalemia solution contraction (in words) [1]: significant relaxant effect
c1ccc2c(c1)ncn2CCCCN1CCC(c2ccncc2)CC1 [II-30, N-(4-(1H-benzimidazol-1-yl)butyl)-4-(4-pyridyl)piperidine] | 55 µM | 
Clc1cccc(C2CCN(CCCCn3cnc4ccccc43)CC2)c1 [Compound II-1, N-(4-(1H-benzimidazol-1-yl)butyl)-4-(3-chlorophenyl)piperidine] | 20.4 µM | 
c1ccc2c(c1)nnn2CCCCN1CCC(C2CCCCC2)CC1 [II-32, N-(4-(1H-benzotriazole-1-yl)butyl)-4-cyclohexyl piperidine] | 72.4 µM | 
Cc1ccc2nnn(CCCN3CCC(c4noc5cc(F)ccc45)CC3)c2c1 [II-16, N-(3-(6-methyl-1H-benzotriazole-1-yl)propyl)-4-(3-(6-fluorobenzoisoxazole))piperidine] | 5.25 µM | 
Fc1ccc2c(C3CCN(CCCn4nnc5ccc(Cl)cc54)CC3)noc2c1 [II-15, N-(3-(6-chloro-1H-benzotriazole-1-yl)propyl)-4-(3-(6-fluorobenzoisoxazole))piperidine] | 7.59 µM | 
N#Cc1ccc2nnn(CCCCN3CCC(c4cccc(C(F)(F)F)c4)CC3)c2c1 [II-9, N-(4-(6-cyano-1H-benzotriazole-1-yl)butyl)-4-(3-trifluoromethylphenyl)piperidine] | 58.9 µM | 

Compound | EC50 [1] | further results
FC(F)(F)c1cccc(C2CCN(CCCOn3cnc4ccccc43)CC2)c1 [II-11] | 6.76 µM | 
c1ccc2c(C3CCN(CCCCn4nnc5ccccc54)CC3)cccc2c1 [II-33, N-(4-(1H-benzotriazole-1-yl)butyl)-4-(1-naphthyl)piperidine] | 91.2 µM | 
COc1ccc2nnn(CCCN3CCC(c4noc5ccccc45)CC3)c2c1 [II-19, N-(3-(6-methoxybenzotriazolyl)propyl)-4-(3-benzoisoxazole)piperidine] | 7.76 µM | 
FC(F)(F)c1cccc(C2CCN(CCCCn3cnc4ccccc43)CC2)c1 [Compound II-3, N-(4-(1H-benzimidazol-1-yl)butyl)-4-(3-trifluoromethylphenyl)piperidine] | 0.977 µM | 
Clc1cccc(N2CCN(CCCn3nnc4ccccc43)CC2)c1Cl [II-72, 1-(3-(4-(2,3-dichlorophenyl)piperazin-1-yl)propyl)-1H-benzotriazole] | 4.68 µM | EC50 [2]: 1.91 µM
Fc1ccc2nnn(CCCCN3CCC(c4cccc(C(F)(F)F)c4)CC3)c2c1 [II-7, N-(4-(6-fluoro-1H-benzotriazole-1-yl)butyl)-4-(3-trifluoromethylphenyl)piperidine] | 9.33 µM | 
Fc1ccc2c(C3CCN(CCCn4nnc5ccc(F)cc54)CC3)noc2c1 [II-14, N-(3-(6-fluoro-1H-benzotriazole-1-yl)propyl)-4-(3-(6-fluorobenzoisoxazole))piperidine] | 1.91 µM | 
N#Cc1ccc2nnn(CCCCN3CCN(c4cccc(C(F)(F)F)c4)CC3)c2c1 [II-84, 6-cyano-1-(4-(4-(3-trifluoromethylphenyl)piperazin-1-yl)butyl)-1H-benzotriazole] | 49 µM | 
COc1ccccc1C1CCN(CCCCn2cnc3ccccc32)CC1 [Compound II-6, N-(4-(1H-benzimidazol-1-yl)butyl)-4-(2-methoxyphenyl)piperidine] | 41.7 µM | 
Fc1cccc(C2CCN(CCCCn3cnc4ccccc43)CC2)c1 [II-5, N-(4-(1H-benzimidazol-1-yl)butyl)-4-(3-fluorophenyl)piperidine] | 36.3 µM | 
FC(F)(F)c1cccc(C2CCN(CCCCn3nnc4ccccc43)CC2)c1 [II-4, N-(4-(1H-benzotriazole-1-yl)butyl)-4-(3-trifluoromethylphenyl)piperidine] | 0.759 µM | 
COc1ccc2c(C3CCN(CCCn4nnc5ccccc54)CC3)noc2c1 [II-13, N-(3-(1H-benzotriazole-1-yl)propyl)-4-(3-(6-methoxy-benzene and isoxazole))piperidine] | 7.59 µM | 
c1ccc2nc(C3CCN(CCCCn4nnc5ccccc54)CC3)cnc2c1 [II-34, N-(4-(1H-benzotriazole-1-yl)butyl)-4-(2-quinoxalinyl)piperidine] | 74.1 µM | 
COc1ccc2c(C3CCN(CCCCn4nnc5ccc(C#N)cc54)CC3)noc2c1 [II-23, N-(4-(6-cyano-benzotriazole-yl)butyl)-4-(3-(6-methoxy-benzene and isoxazole)) piperidine] | 58.9 µM | 
FC(F)(F)c1cccc(C2CCN(CCCOn3nnc4ccccc43)CC2)c1 [II-10, N-(4-(1H-benzotriazole-1-yl)propoxy)-4-(3-trifluoromethylphenyl)piperidine] | 6.03 µM | 
c1cnc(C2CCN(CCCCn3cnc4ccccc43)CC2)nc1 [II-31, N-(4-(1H-benzimidazol-1-yl)butyl)-4-(2-pyrimidinyl)piperidine] | 47.9 µM | 

— US9802929B2, “Benzo five-membered nitrogen heterocyclic piperidine or piperazine derivatives and preparation methods and pharmaceutical compositions thereof” (Shenyang Haiwang Biotechnology Co., Ltd., priority 2012, dated 2017)
